The target of this test is T1, hBK1 receptor (Homo sapiens, UniProt P46663).
T1 construct: expressed in transfected cells; host or cells: CHO cells (membrane homogenate)
T1 sequence (P46663 1-353): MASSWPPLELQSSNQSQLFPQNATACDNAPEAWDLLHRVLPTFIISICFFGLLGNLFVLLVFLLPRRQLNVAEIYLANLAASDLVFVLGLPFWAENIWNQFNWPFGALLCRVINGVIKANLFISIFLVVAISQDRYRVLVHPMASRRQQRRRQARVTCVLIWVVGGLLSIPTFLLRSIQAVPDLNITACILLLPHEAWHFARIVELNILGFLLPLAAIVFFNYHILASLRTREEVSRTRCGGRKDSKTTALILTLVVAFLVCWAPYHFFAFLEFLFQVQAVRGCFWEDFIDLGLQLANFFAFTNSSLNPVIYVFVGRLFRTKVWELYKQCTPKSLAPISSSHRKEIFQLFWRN
In words: hBK1 receptor binding. The conditions noted are these: membranes of CHO cells expressing the hBK1 receptor; radioligand 0.5 to 1.0 nM kallidin (DesArg10, Leu9), [3,4-prolyl-3,43H(N)]; 60 minutes, room temperature. Here is the method:
Description of the Method of hBK1 Receptor Binding
CHO cells expressing the hBK1 receptor are cultivated in Dulbecco's modified medium. The medium from confluent cultures is removed and the cells are washed with PBS buffer, scraped off and isolated by centrifugation. The cells are then homogenized in suspension and the homogenate is centrifuged and resuspended. The protein content is determined and the membrane preparation obtained in this manner is then frozen at −80° C.
After thawing, 200 μl of the homogenate (50 to 100 μg of proteins/assay) are incubated at room temperature with 0.5 to 1.0 nM of kallidin (DesArg10, Leu9), [3,4-prolyl-3,43H(N)] and increasing concentrations of the test substance in a total volume of 250 μl for 60 minutes. The incubation is terminated by rapid filtration through GF/B glass fibre filters which had been pretreated with polyethyleneimine (0.3%). The protein-bound radioactivity is measured in a TopCount NXT. Non-specific binding is defined as radioactivity bound in the presence of 1.0 μM of kallidin (DesArg10, Leu9), [3,4-prolyl-3,43H(N)]. The concentration/binding curve is analysed using a computer-assisted nonlinear curve fitting. The K which corresponds to the test substance is determined using the data obtained in this manner. […]

The Ki is a dissociation constant, usually derived from enzyme kinetics or from competition with a known ligand. High values mean lower affinity, low ones higher affinity.

Regarding `COc1cc(C)c(S(=O)(=O)N(C)CCOCC(=O)N(C)[C@@H]2CCN(C3CCN(C)CC3)C2)c(C)c1` [(394)], the Ki worked out at 1.04 nM. This lies in the single-digit nanomolar range.
